Activity calls are given as the source filed them.
Legend:
[1] = target: T1, Zinc finger protein mex-5 (Caenorhabditis elegans, UniProt Q9XUB2); test: potency of MEX-5 RNA-binding blockers – biochemical, C. elegans, fluorescence polarization, dose response (AID 1960)
T1 sequence (Q9XUB2 whole entry): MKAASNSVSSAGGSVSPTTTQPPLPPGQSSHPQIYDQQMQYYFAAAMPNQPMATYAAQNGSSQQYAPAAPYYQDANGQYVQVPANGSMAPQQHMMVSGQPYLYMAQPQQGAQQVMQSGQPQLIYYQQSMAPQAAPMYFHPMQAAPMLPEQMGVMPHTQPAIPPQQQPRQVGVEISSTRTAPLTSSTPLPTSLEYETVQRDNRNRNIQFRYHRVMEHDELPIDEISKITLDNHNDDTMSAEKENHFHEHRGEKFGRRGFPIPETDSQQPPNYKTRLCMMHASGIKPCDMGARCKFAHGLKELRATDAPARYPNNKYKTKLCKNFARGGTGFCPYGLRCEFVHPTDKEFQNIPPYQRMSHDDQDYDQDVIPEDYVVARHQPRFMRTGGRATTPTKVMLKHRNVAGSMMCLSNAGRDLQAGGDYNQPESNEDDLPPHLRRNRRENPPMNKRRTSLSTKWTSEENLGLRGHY

[2] = target: T2, RNA-binding protein pos-1 (Caenorhabditis elegans, UniProt G5EF15); test: disruptors of C. elegans POS-1 RNA interaction – biochemical, fluorescence polarization, dose response (AID 1964);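 further: purified POS-1 fused to maltose binding protein made in E. coli; potency of compounds blocking POS-1 binding to fluorescent RNA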
T2 sequence (G5EF15 whole entry): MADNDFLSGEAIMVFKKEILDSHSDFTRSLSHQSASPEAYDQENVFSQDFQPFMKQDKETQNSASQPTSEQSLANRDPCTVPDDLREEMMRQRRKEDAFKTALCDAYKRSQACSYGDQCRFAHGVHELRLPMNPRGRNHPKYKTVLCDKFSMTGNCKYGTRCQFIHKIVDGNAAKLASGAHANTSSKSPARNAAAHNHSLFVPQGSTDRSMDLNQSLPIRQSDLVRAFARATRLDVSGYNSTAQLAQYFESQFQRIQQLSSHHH

H4 = test: Luminescence Cell-Based Dose Response HTS to Identify Activators of 5'UTR Stem-Loop Driven Prion Protein mRNA Translation in H4 Neuroglioblastoma Cells. [Related pubchem assays: 1829 (Project Summary), 1814 (Primary HTS)]; assay type: functional; settings: Homo sapiens
[3] = Luminescence Cell-Based Dose Confirmation HTS to Identify Activators of 5'UTR Stem-Loop Driven Alpha-Synuclein mRNA Translation in H4 Neuroglioblastoma Cells. [Related pubchem assays: 1829 (Project Summary), 1814 (Primary HTS)]; assay type: functional
[4] = Luminescence Cell-Based Dose Response HTS to Identify Activators of Luciferase Translation or Activity in H4 […] Cells. [Related pubchem assays: 1829 (Project Summary), 1814 (Primary HTS)]; assay type: functional
[5] = target: T3, Calpain-2 catalytic subunit (Sus scrofa, UniProt P43367); test: m-calpain protease blockers, concentration series – biochemical, fluorogenic peptide substrate, dose response (AID 1420); assay type: functional
T3 sequence (P43367 whole entry): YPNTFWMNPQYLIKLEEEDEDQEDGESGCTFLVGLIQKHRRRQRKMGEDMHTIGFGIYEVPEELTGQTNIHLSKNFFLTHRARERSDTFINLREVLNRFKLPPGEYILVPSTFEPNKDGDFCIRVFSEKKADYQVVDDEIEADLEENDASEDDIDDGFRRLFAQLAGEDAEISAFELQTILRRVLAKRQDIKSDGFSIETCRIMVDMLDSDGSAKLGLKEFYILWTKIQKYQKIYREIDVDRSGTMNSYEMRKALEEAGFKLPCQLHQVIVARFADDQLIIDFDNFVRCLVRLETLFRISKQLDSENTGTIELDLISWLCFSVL

[6] = blockers of HIV-1 envelope-mediated cell-cell fusion – cherry-pick, dose response (AID 652057); assay type: functional, cell-based
[7] = HIV-1 AD8 envelope cell-cell fusion blockers – cherry-pick, dose response (AID 652062); assay type: functional, cell-based;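 further: luciferase signal from cell-cell fusion driven by HIV-1 clade B AD8 Env; potency is for inhibitors of fusion seen as a drop in luminescence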
Cytochrome P450 3A4 = Cytochrome P450 3A4 (Homo sapiens, UniProt P08684);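 further: CYP3A4 tested as one member of a cytochrome P450 panel screen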
Cytochrome P450 2C19 = Cytochrome P450 2C19 (Homo sapiens, UniProt P33261); test: Cytochrome panel assay with activity outcomes. Panel member name: p450-cyp2c19 Compounds with AC50 equal or less than 10 uM are considered active; assay type: functional
Large T antigen = Large T antigen (Simian virus 40, UniProt P03070); assay type: functional, Betapolyomavirus macacae;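 further: Confirmatory-stage PubChem screen for compounds that inhibit SV40 T antigen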
[8] = Luminescence Cell-Based Dose Confirmation HTS to Identify Inhibitors of Platelet Dense Granule Release. [Related pubchem assays: 1663 (Primary HTS), 1678 (Summary of Project)]; assay type: functional
[9] = target: Luciferin 4-monooxygenase (Photinus pyralis, UniProt P08659); test: inhibition of purified Photinus pyralis luciferase – biochemical, luminescence, dose response (AID 1891)
Cytochrome P450 2C9 = Cytochrome P450 2C9 (Homo sapiens, UniProt P11712)
Cytochrome P450 1A2 = target: T4, Cytochrome P450 1A2 (Homo sapiens, UniProt P05177);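 further: PubChem cytochrome P450 panel assay, CYP1A2 panel member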
T4 sequence (P05177 whole entry): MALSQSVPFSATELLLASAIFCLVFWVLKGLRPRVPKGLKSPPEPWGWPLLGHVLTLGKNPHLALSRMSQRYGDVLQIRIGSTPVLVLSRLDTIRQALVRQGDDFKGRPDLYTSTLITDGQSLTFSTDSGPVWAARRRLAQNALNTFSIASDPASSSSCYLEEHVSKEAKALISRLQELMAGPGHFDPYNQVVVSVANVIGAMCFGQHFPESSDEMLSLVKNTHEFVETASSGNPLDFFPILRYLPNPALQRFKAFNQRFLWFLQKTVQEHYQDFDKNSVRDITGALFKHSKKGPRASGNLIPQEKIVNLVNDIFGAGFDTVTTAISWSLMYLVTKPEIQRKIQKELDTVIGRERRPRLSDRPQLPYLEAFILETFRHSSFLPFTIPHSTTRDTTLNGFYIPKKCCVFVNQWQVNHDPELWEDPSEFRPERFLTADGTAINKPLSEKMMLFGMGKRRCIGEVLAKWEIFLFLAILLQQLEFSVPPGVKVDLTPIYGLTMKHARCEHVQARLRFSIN

Sequence of Cytochrome P450 2C19 (P33261 whole entry): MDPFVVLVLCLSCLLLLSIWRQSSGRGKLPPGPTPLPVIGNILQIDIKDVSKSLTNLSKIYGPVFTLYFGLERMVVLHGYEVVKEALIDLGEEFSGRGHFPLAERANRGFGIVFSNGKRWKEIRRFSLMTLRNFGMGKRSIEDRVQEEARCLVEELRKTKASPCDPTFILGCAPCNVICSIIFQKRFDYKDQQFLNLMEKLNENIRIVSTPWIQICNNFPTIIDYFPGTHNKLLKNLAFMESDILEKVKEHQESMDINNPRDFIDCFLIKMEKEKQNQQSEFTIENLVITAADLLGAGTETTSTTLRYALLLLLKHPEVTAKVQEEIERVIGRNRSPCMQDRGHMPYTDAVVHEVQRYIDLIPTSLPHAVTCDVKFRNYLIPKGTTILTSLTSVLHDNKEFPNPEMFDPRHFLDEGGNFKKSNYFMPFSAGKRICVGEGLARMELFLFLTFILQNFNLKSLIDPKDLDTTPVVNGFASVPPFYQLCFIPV
Sequence of Luciferin 4-monooxygenase (P08659 whole entry): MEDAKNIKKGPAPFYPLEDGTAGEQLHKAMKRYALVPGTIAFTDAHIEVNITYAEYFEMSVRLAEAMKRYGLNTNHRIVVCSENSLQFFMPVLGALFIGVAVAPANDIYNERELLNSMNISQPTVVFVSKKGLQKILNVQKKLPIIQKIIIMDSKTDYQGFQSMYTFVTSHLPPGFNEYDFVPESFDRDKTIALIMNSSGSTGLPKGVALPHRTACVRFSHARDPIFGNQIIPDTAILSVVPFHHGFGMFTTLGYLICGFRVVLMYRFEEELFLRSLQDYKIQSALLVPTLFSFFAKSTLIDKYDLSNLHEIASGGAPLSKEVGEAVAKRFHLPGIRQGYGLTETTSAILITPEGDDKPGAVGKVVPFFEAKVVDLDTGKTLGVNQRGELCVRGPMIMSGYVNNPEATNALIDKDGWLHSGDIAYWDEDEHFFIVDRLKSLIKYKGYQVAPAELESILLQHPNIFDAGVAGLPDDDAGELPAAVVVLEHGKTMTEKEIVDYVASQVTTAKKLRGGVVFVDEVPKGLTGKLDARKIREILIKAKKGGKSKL
Sequence of Large T antigen (P03070 whole entry): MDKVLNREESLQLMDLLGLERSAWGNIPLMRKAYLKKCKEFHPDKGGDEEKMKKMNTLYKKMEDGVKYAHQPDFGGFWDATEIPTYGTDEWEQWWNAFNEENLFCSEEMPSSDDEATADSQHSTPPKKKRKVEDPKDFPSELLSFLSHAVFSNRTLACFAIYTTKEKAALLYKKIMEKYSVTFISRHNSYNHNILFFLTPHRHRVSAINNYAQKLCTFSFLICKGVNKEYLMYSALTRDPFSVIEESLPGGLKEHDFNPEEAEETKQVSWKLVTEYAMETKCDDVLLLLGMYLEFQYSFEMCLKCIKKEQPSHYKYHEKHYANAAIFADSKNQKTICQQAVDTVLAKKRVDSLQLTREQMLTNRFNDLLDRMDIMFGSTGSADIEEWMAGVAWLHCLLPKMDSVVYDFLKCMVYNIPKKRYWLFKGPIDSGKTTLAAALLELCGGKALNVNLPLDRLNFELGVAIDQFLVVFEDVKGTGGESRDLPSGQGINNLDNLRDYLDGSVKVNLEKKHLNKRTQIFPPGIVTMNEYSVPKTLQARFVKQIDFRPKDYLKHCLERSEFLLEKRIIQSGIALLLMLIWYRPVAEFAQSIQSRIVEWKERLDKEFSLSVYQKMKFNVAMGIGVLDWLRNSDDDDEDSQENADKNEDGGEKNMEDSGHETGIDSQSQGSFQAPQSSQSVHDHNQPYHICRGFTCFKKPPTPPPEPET
Sequence of Cytochrome P450 3A4 (P08684 whole entry): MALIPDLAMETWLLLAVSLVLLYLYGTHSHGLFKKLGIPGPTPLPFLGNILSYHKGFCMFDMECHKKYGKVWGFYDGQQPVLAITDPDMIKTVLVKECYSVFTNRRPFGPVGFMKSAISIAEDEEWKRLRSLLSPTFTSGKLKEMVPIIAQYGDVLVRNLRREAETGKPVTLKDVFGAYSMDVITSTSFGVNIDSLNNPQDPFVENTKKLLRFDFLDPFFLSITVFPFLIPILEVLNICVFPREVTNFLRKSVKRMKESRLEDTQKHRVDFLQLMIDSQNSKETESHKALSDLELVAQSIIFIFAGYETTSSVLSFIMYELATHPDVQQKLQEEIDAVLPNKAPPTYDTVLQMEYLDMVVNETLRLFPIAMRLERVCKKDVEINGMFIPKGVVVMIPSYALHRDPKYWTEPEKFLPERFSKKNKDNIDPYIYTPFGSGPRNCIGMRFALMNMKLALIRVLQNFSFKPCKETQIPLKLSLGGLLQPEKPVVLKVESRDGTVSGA
Sequence of Cytochrome P450 2C9 (P11712 whole entry): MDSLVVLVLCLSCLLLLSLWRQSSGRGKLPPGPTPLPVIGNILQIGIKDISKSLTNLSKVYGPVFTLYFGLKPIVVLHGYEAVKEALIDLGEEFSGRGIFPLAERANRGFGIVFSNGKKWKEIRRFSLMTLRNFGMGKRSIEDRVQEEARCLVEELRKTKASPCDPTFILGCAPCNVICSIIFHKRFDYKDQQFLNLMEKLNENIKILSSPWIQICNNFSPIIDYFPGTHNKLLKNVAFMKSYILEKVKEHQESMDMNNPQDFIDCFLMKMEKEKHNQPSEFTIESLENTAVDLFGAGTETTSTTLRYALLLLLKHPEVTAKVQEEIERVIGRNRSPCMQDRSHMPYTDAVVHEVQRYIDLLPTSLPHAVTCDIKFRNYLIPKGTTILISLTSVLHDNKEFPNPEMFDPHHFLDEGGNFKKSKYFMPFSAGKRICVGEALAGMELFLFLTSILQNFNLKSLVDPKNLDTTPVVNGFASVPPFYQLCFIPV

In the case of CC1OC(Oc2c(-c3cc(O)c(O)c(O)c3)oc3cc(O)cc(O)c3c2=O)C(O)C(O)C1O (centres undefined), the EC50 [1] is reported as 17.2 µM (active) and the EC50 [2] is reported as 18 µM (active).

In the case of COc1ccc(C(=O)COC(=O)c2cc(O)nc3ccccc23)c(OC)c1, the EC50 (H4) is reported as 20.7 µM (active), the EC50 [3] is reported as 8.87 µM (active) and the EC50 [4] is reported as 54 µM (active).

For CCOC(=O)c1ccc(NC(=O)Cn2c(-c3nonc3N)nc3ccccc32)cc1, the IC50 [5] was 18.8 µM (not active).

In the case of C[C@@H]1CN([C@@H](C)CO)S(=O)(=O)c2ccc(-c3cccc(F)c3)cc2O[C@@H]1CN(C)S(=O)(=O)c1ccc(F)cc1, the AC50 [6] is reported as 1.34 µM (active) and the AC50 [7] is reported as 24.2 µM (active).

In the case of O=C(NCCCN1CCOCC1)C1Nc2ccc(OC(F)(F)F)cc2C2C=CCC12 (centres undefined), the EC50 [1] is reported as > 300 µM (not active) and the EC50 [2] is reported as > 300 µM (not active).

For Cc1ccccc1N1C(=O)NC(=O)/C(=C/Nc2ccc(N(C)C)cc2)C1=O, the AC50 (Cytochrome P450 3A4) was 0.398 µM (inconclusive), the AC50 (Cytochrome P450 2C19; read-out: AC50) was 22.4 µM (inconclusive) and the IC50 (Large T antigen) was 6.73 µM (active).

For CCOC(=O)C(OC(=O)c1sc(=S)n(C)c1C)C(C)=O (centres undefined), the EC50 [8] was > 112 µM (not active) and the EC50 [9] was > 112 µM (not active).

For Cc1ccccc1N1C(=O)NC(=O)/C(=C\c2cc(C)n(C)c2C)C1=O, the EC50 [1] was > 300 µM (not active) and the EC50 [2] was > 300 µM (not active).

For COc1ccc(C(=O)CSc2nc(N)nc(SC)c2C#N)cc1, the IC50 [5] was 17.3 µM (not active).

With CCC(=O)N1CCc2nc(-c3ccccc3)sc2C1 the EC50 (H4) was 46.3 µM (active), the EC50 [3] was 7.33 µM (active) and the EC50 [4] was 20.4 µM (active).

For COc1cc(C2C(C#N)=C(N)OC3=C2C(=O)CC(C)(C)C3)ccc1OCCN1CCOCC1 (centres undefined), the EC50 [1] was > 300 µM (not active) and the EC50 [2] was > 300 µM (not active).

In the case of Cc1ccc(NC(=O)CN2CCC(Cc3ccccc3)CC2)cc1S(=O)(=O)N(C)C, the IC50 [5] is reported as 27.3 µM (not active).

With COC(=O)c1ccc(NC(S)=NC2CC3CCC2C3)cc1 (centres undefined) the IC50 [5] was 16.4 µM (active).

In the case of CCOc1cc(/C=N/NC(=O)c2ccncc2)ccc1OS(C)(=O)=O, the IC50 [5] is reported as < 0.4 µM (not active).

In the case of Cc1ccc(C(=O)NC(=S)Nc2cc(C(F)(F)F)ccc2Cl)cc1, the AC50 (Cytochrome P450 2C19) is reported as “inconclusive”, the AC50 (Cytochrome P450 2C9) is reported as “inconclusive” and the AC50 (Cytochrome P450 1A2) is reported as 0.562 µM (inconclusive).

With O=C(OCCc1ccccc1)c1cc(O)c(O)c(O)c1 the EC50 [1] was 29.6 µM (active), the IC50 (Large T antigen) was > 100 µM (active) and the EC50 [2] was > 300 µM (not active).

For Cc1ccc(-c2nc3ncccn3c2NC(=O)C2CC2)cc1, the EC50 [8] was > 112 µM (not active), the AC50 (Cytochrome P450 2C19) was “inconclusive” and the EC50 [9] was > 112 µM (not active). The AC50 (Cytochrome P450 1A2) was 15.8 µM (inconclusive).

For O=C(NC1CC1)C1Nc2ccc(OC(F)(F)F)cc2C2C=CCC12 (centres undefined), the EC50 [1] was > 300 µM (not active) and the EC50 [2] was > 300 µM (not active).

In the case of COc1ccccc1/C=C(/C(=O)OCC(=O)Nc1ccccc1C)c1ccccc1, the IC50 [5] is reported as 9.36 µM (not active).

In the case of O=C(N/N=C/C(Br)=C/c1ccccc1)C1CC1, the EC50 (H4) is reported as 15.8 µM (active), the EC50 [3] is reported as 18.7 µM (active) and the EC50 [4] is reported as 60.3 µM (active).

With O=C(NC1CCCC1)c1csc2c1CCCC2 the EC50 [8] was > 112 µM (not active) and the EC50 [9] was > 112 µM (not active).
